Experimental data from the supplement of paper PMC10307832.

Key:
Test in all cases: relative viability (nuclei count vs DMSO), 5 days (fraction); higher = more cells survive
201T = system: 201T
Procedure, shortened: (§1)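 A single step with final 0.05% Triton X-100, 1% formaldehyde and 1 ug/ml Hoechst fixed the cells and stained nuclei 5 days after treatment. Lung cancer cell lines in 1536-well plates had been treated by pin tool the day after seeding with one drug alone or a fixed anchor-drug dose plus five library-drug doses (not always all listed) in √10 steps, and nuclei were counted on 4× images. Relative viability is the ratio of nuclei in treated wells to nuclei in vehicle wells, taken as the median of duplicate plates.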

BEN = system: BEN
Procedure, shortened: as §1

HCC-366 = system: HCC-366
Procedure, shortened: as §1

HCC-44 = system: HCC-44
Procedure, shortened: as §1

HCC-78 = system: HCC-78
Procedure, shortened: as §1

LOU-NH91 = system: LOU-NH91
Procedure, shortened: as §1

LU99A = system: LU99A
Procedure, shortened: as §1

NCI-H1355 = system: NCI-H1355
Procedure, shortened: as §1

NCI-H1395 = system: NCI-H1395
Procedure, shortened: as §1

NCI-H1734 = system: NCI-H1734
Procedure, shortened: as §1

NCI-H1975 = system: NCI-H1975
Procedure, shortened: as §1

NCI-H2085 = system: NCI-H2085
Procedure, shortened: as §1

NCI-H2087 = system: NCI-H2087
Procedure, shortened: as §1

NCI-H2126 = system: NCI-H2126
Procedure, shortened: as §1

NCI-H2228 = system: NCI-H2228
Procedure, shortened: as §1

NCI-H322M = system: NCI-H322M
Procedure, shortened: as §1

NCI-H358 = system: NCI-H358
Procedure, shortened: as §1

NCI-H647 = system: NCI-H647
Procedure, shortened: as §1

NCI-H727 = system: NCI-H727
Procedure, shortened: as §1

PC-14 = system: PC-14
Procedure, shortened: as §1

SK-LU-1 = system: SK-LU-1
Procedure, shortened: as §1

SK-MES-1 = system: SK-MES-1
Procedure, shortened: as §1

UMC-11 = system: UMC-11
Procedure, shortened: as §1

C=C1C(=O)O[C@@H](CCCCCCCC)[C@@H]1C(=O)O [C-75] + O=C(c1cc(Cc2n[nH]c(=O)c3ccccc23)ccc1F)N1CCN(C(=O)C2CC2)CC1 [Olaparib] (partner 8 µM)
relative viability (201T; first compound 0.08 µM): 0.812 | relative viability (201T; first compound 0.253 µM): 0.897 | relative viability (201T; first compound 0.8 µM): 0.84 | relative viability (201T; first compound 2.53 µM): 0.605 | relative viability (201T; first compound 8 µM): 0.87 | relative viability (BEN; first compound 0.08 µM): 1.22 | relative viability (BEN; first compound 0.253 µM): 1.07 | relative viability (BEN; first compound 0.8 µM): 1.04 | relative viability (BEN; first compound 2.53 µM): 0.771 | relative viability (BEN; first compound 8 µM): 0.914 | relative viability (HCC-366; first compound 0.08 µM): 0.349 | relative viability (HCC-366; first compound 0.253 µM): 0.49 | relative viability (HCC-366; first compound 0.8 µM): 0.341 | relative viability (HCC-366; first compound 2.53 µM): 0.356 | relative viability (HCC-366; first compound 8 µM): 0.347 | relative viability (HCC-44; first compound 0.08 µM): 0.998 | relative viability (HCC-44; first compound 0.253 µM): 0.944 | relative viability (HCC-44; first compound 0.8 µM): 0.962 | relative viability (HCC-44; first compound 2.53 µM): 0.905 | relative viability (HCC-44; first compound 8 µM): 0.919 | relative viability (HCC-78; first compound 0.08 µM): 0.838 | relative viability (HCC-78; first compound 0.253 µM): 1.08 | relative viability (HCC-78; first compound 0.8 µM): 0.81 | relative viability (HCC-78; first compound 8 µM): 0.823 | relative viability (LOU-NH91; first compound 0.08 µM): 0.909 | relative viability (LOU-NH91; first compound 0.253 µM): 0.786 | relative viability (LOU-NH91; first compound 0.8 µM): 0.878 | relative viability (LOU-NH91; first compound 8 µM): 0.88 | relative viability (LU99A; first compound 0.08 µM): 0.255 | relative viability (LU99A; first compound 0.253 µM): 0.245 | relative viability (LU99A; first compound 0.8 µM): 0.25 | relative viability (LU99A; first compound 2.53 µM): 0.245 | relative viability (LU99A; first compound 8 µM): 0.205 | relative viability (NCI-H1355; first compound 0.08 µM): 0.709 | relative viability (NCI-H1355; first compound 0.253 µM): 0.767 | relative viability (NCI-H1355; first compound 0.8 µM): 0.76 | relative viability (NCI-H1355; first compound 2.53 µM): 0.647 | relative viability (NCI-H1355; first compound 8 µM): 0.753 | relative viability (NCI-H1395; first compound 0.08 µM): 0.423 | relative viability (NCI-H1395; first compound 0.253 µM): 0.433 | relative viability (NCI-H1395; first compound 2.53 µM): 0.465 | relative viability (NCI-H1395; first compound 8 µM): 0.511 | relative viability (NCI-H1734; first compound 0.08 µM): 0.546 | relative viability (NCI-H1734; first compound 0.253 µM): 0.569 | relative viability (NCI-H1734; first compound 0.8 µM): 0.277 | relative viability (NCI-H1734; first compound 2.53 µM): 0.506 | relative viability (NCI-H1734; first compound 8 µM): 0.608 | relative viability (NCI-H1975; first compound 0.08 µM): 0.777 | relative viability (NCI-H1975; first compound 0.253 µM): 0.817 | relative viability (NCI-H1975; first compound 0.8 µM): 0.755 | relative viability (NCI-H1975; first compound 2.53 µM): 0.77 | relative viability (NCI-H1975; first compound 8 µM): 0.741 | relative viability (NCI-H2085; first compound 0.08 µM): 0.766 | relative viability (NCI-H2085; first compound 0.253 µM): 0.61 | relative viability (NCI-H2085; first compound 0.8 µM): 0.753 | relative viability (NCI-H2085; first compound 2.53 µM): 0.681 | relative viability (NCI-H2085; first compound 8 µM): 0.725 | relative viability (NCI-H2087; first compound 0.08 µM): 0.643 | relative viability (NCI-H2087; first compound 0.253 µM): 0.626 | relative viability (NCI-H2087; first compound 0.8 µM): 0.584 | relative viability (NCI-H2087; first compound 2.53 µM): 0.468 | relative viability (NCI-H2087; first compound 8 µM): 0.423 | relative viability (NCI-H2126; first compound 0.08 µM): 0.881 | relative viability (NCI-H2126; first compound 0.253 µM): 0.927 | relative viability (NCI-H2126; first compound 0.8 µM): 0.858 | relative viability (NCI-H2126; first compound 2.53 µM): 0.878 | relative viability (NCI-H2126; first compound 8 µM): 0.894 | relative viability (NCI-H2228; first compound 0.08 µM): 0.709 | relative viability (NCI-H2228; first compound 0.253 µM): 0.897 | relative viability (NCI-H2228; first compound 0.8 µM): 0.494 | relative viability (NCI-H2228; first compound 2.53 µM): 0.543 | relative viability (NCI-H2228; first compound 8 µM): 0.414 | relative viability (NCI-H322M; first compound 0.08 µM): 0.764 | relative viability (NCI-H322M; first compound 0.253 µM): 0.965 | relative viability (NCI-H322M; first compound 0.8 µM): 0.754 | relative viability (NCI-H322M; first compound 8 µM): 0.764 | relative viability (NCI-H358; first compound 0.08 µM): 0.642 | relative viability (NCI-H358; first compound 0.253 µM): 0.623 | relative viability (NCI-H358; first compound 0.8 µM): 0.534 | relative viability (NCI-H358; first compound 8 µM): 0.575 | relative viability (NCI-H647; first compound 0.08 µM): 0.522 | relative viability (NCI-H647; first compound 0.253 µM): 0.727 | relative viability (NCI-H647; first compound 0.8 µM): 0.452 | relative viability (NCI-H647; first compound 2.53 µM): 0.495 | relative viability (NCI-H647; first compound 8 µM): 0.354 | relative viability (NCI-H727; first compound 0.08 µM): 0.69 | relative viability (NCI-H727; first compound 0.253 µM): 0.865 | relative viability (NCI-H727; first compound 0.8 µM): 0.671 | relative viability (NCI-H727; first compound 2.53 µM): 0.371 | relative viability (NCI-H727; first compound 8 µM): 0.636 | relative viability (PC-14; first compound 0.08 µM): 0.276 | relative viability (PC-14; first compound 0.253 µM): 0.257 | relative viability (PC-14; first compound 0.8 µM): 0.296 | relative viability (PC-14; first compound 2.53 µM): 0.252 | relative viability (PC-14; first compound 8 µM): 0.308 | relative viability (SK-LU-1; first compound 0.08 µM): 0.465 | relative viability (SK-LU-1; first compound 0.253 µM): 0.451 | relative viability (SK-LU-1; first compound 0.8 µM): 0.454 | relative viability (SK-LU-1; first compound 2.53 µM): 0.393 | relative viability (SK-LU-1; first compound 8 µM): 0.377 | relative viability (SK-MES-1; first compound 0.08 µM): 0.78 | relative viability (SK-MES-1; first compound 0.253 µM): 0.772 | relative viability (SK-MES-1; first compound 0.8 µM): 0.724 | relative viability (SK-MES-1; first compound 2.53 µM): 0.638 | relative viability (SK-MES-1; first compound 8 µM): 0.64 | relative viability (UMC-11; first compound 0.08 µM): 0.37 | relative viability (UMC-11; first compound 0.253 µM): 0.38 | relative viability (UMC-11; first compound 0.8 µM): 0.352 | relative viability (UMC-11; first compound 2.53 µM): 0.27 | relative viability (UMC-11; first compound 8 µM): 0.335
